Assay: xn = mol fraction of the nth substance listed

CCCCN(CCCC)CCCC + CCCCCCCCCCO
viscosity [mPa·s], 101.3 kPa
Conditions	x1 = 0.0952	x1 = 0.1901	x1 = 0.2866	x1 = 0.3816	x1 = 0.5195	x1 = 0.6185	x1 = 0.7198	x1 = 0.8029	x1 = 0.9006
303.15 K	7.192	5.845	4.754	3.874	2.91	2.358	1.928	1.658	1.378
313.15 K	5.659	4.596	3.721	3.026	2.288	1.892	1.586	1.388	1.175

CCCCOC(=O)c1ccccc1C(=O)OCCCC + CCCCCCCCCCO
303.15 K, 101.33 kPa
Conditions	viscosity [mPa·s]
x1 = 0.1004	8.572
x1 = 0.1995	8.061
x1 = 0.3035	7.851
x1 = 0.4004	7.91
x1 = 0.4902	8.075
x1 = 0.5977	8.479
x1 = 0.6985	9.095
x1 = 0.7997	9.985
x1 = 0.8948	11.18

O=C1c2ccccc2C(=O)C1(O)O + CCCCCCCCCO
101.3 kPa, x1 = 0.25
Conditions	viscosity [mPa·s]
293.15 K	38.14
298.15 K	27.87
303.15 K	21.73
308.15 K	17.37
313.15 K	13.74
318.15 K	11.01
323.15 K	9.139

CCCCN(CCCC)CCCC + CCCCCCCCO
viscosity [mPa·s], 101.3 kPa
Conditions	x1 = 0.0904	x1 = 0.1906	x1 = 0.2864	x1 = 0.4192	x1 = 0.5184	x1 = 0.6196	x1 = 0.7144	x1 = 0.8124	x1 = 0.8987
303.15 K	5.287	4.464	3.765	2.935	2.43	2.025	1.723	1.487	1.33
313.15 K	3.767	3.171	2.698	2.185	1.872	1.619	1.424	1.25	1.128

CCCCOC(=O)c1ccccc1C(=O)OCCCC + CCCCCCCCO
303.15 K, 101.33 kPa
Conditions	viscosity [mPa·s]
x1 = 0.1003	5.9
x1 = 0.2011	5.876
x1 = 0.3001	6.078
x1 = 0.3996	6.444
x1 = 0.5	6.901
x1 = 0.5999	7.6
x1 = 0.6958	8.396
x1 = 0.7975	9.53
x1 = 0.898	11.05

C=CC#N + CCCCCCCO
viscosity [mPa·s], 101.33 kPa
Conditions	x1 = 0.1047	x1 = 0.206	x1 = 0.3057	x1 = 0.4142	x1 = 0.5106	x1 = 0.6206	x1 = 0.7044	x1 = 0.8027	x1 = 0.9033
298.15 K	4.015	2.967	2.212	1.627	1.238	0.891	0.705	0.54	0.425
303.15 K	3.469	2.587	1.958	1.441	–	0.815	0.652	0.508	0.403
308.15 K	3	2.273	1.73	1.296	1.013	0.75	0.605	0.478	0.383

CCCCN(CCCC)CCCC + CCCCCCCO
viscosity [mPa·s], 101.3 kPa
Conditions	x1 = 0.1067	x1 = 0.1877	x1 = 0.2841	x1 = 0.4197	x1 = 0.5183	x1 = 0.619	x1 = 0.7191	x1 = 0.8008	x1 = 0.89
303.15 K	4.133	3.677	3.178	2.558	2.191	1.881	1.644	1.482	1.328
313.15 K	3.033	2.69	2.355	1.956	1.709	1.497	1.33	1.217	1.1

Reference: the CheMixHub viscosity set
